Reference: patent US20240285596A1, “SOLID DOSAGE FORMS AND DOSING REGIMENS COMPRISING (2R,3S,4S,5R)-4-[[3-(3,4-DIFLUORO-2-METHOXY-PHENYL)-4,5-DIMETHYL-5-(TRIFLUOROMETHYL) TETRAHYDROFURAN-2-CARBONYL]AMINO]PYRIDINE-2-CARBOXAMIDE” (VERTEX PHARMACEUTICALS INCORPORATED, priority 2021, published 2024)

Legend:
[1] = biological target: human NaV 1.8 (Homo sapiens, UniProt Q9Y5Y9); test: E-VIPR assay detecting and measuring NaV inhibition properties; type: cell-based; conditions: HEK cells expressing a truncated form of human NaV 1.8; E-VIPR membrane potential readout
Chain of human NaV 1.8 (Q9Y5Y9 126-1722 limits assumed): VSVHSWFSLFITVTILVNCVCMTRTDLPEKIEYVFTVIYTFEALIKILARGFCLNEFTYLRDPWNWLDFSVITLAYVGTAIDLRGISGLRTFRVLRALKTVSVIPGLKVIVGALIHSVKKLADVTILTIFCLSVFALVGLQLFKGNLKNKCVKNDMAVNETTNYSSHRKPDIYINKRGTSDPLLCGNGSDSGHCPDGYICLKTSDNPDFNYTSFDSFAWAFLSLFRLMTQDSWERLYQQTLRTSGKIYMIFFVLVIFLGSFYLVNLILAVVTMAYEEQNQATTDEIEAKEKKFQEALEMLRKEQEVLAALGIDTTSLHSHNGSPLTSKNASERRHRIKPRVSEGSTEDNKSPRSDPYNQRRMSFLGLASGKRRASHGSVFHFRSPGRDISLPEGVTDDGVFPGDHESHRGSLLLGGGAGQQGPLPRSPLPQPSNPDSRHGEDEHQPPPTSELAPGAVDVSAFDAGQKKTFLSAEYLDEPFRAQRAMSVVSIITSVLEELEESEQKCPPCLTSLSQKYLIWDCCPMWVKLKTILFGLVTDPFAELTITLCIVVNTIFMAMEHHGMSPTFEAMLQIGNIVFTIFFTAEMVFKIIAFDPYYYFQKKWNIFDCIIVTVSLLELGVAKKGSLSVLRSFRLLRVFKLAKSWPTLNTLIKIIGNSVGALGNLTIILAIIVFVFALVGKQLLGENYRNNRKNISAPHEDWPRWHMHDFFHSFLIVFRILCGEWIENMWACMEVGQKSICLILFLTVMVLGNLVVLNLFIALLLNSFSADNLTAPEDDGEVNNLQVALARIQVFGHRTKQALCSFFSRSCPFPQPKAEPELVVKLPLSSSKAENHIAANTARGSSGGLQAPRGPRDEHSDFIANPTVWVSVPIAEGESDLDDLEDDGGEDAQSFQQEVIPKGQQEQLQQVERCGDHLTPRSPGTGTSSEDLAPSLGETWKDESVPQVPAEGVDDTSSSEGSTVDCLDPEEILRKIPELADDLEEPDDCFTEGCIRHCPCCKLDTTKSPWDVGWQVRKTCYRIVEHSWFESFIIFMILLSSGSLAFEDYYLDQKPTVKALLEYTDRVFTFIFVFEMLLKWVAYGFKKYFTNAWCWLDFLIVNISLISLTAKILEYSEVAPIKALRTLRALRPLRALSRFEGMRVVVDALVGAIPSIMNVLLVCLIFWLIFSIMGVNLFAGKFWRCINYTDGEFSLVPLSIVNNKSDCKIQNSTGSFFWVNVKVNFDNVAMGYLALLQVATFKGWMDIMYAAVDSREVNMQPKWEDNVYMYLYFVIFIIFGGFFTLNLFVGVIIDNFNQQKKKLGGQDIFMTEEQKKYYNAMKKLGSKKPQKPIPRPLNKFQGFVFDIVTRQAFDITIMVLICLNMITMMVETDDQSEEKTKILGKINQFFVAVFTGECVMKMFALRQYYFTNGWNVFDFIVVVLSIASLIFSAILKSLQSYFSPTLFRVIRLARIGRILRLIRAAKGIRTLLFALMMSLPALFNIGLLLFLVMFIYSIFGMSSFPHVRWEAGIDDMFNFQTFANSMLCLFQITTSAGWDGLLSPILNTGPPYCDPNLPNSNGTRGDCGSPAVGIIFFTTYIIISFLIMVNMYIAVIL
From the text: Sodium ion channels are voltage-dependent proteins that can be activated by inducing membrane voltage changes by applying electric fields. The electrical stimulation instrument and methods of use, referred to as E-VIPR, are described in International Publication No. WO 2002/008748 A3 and C.-J. Huang et al. Characterization of voltage-gated sodium channel blockers by electrical stimulation and fluorescence detection of membrane potential, 24 Nature Biotech. 439-46 (2006), both of which are incorporated by reference in their entirety. The instrument comprises a microtiter plate handler, an optical system for exciting the coumarin dye while simultaneously recording the coumarin and oxonol emissions, a waveform generator, a current- or voltage-controlled amplifier, and parallel electrode pairs that are inserted into assay plate wells. […]
5 mM DiSBAC6(3), a voltage sensitive oxonol acceptor (CAS number 169211-44-3; 5-[3-(1,3-dihexylhexahydro-4,6-dioxo-2-thioxo-5-pyrimidinyl)-2-propen-1-ylidene]-1,3-dihexyldihydro-2-thioxo-4,6(1H,5H)-pyrimidinedione), in dry DMSO. The preparation of DiSBAC6(3) is analogous to that of DiSBAC4(3) as described in Voltage Sensing by Fluorescence Resonance Energy Transfer in Single Cells, Gonzalez, J. E. and Tsien, R. Y. (1995) Biophys. […]

[2] = test system: patients undergoing abdominoplasty; test: Study in patients undergoing abdominoplasty (NCT05034952); type: in vivo, human
[3] = test system: subjects with pain following bunionectomy; test: Randomized, double-blind, placebo-controlled study of efficacy and safety in subjects with pain following bunionectomy; conditions: for Mean SPID48: oral, NPRS 0-48 h
From the text: Bunionectomy is a well-established, multi-dose, surgical, acute pain model. A randomized, double-blind study design was used to avoid observer bias and reduce symptoms or outcomes arising from the subjects' knowledge of treatment.
Male and female patients between the ages of 18 and 75 years (inclusive) with pain that is ≥4 on an 11-point Numeric Pain Rating Scale (NPRS) and is moderate or severe on the Verbal Categorical Rating Scale (VRS) after bunionectomy are included in the study.
The investigational drug was administered orally in 10 mg tablets. […] The investigational drug was administered every 12 hours (q12 h). A low, mid, and high dosing regime were tested. The first dose in the low dosing regime was 20 mg, and the subsequent doses were 10 mg g12 h. The first dose in the mid dosing regime was 60 mg, and the subsequent doses were 30 mg g12 h. The first dose in the high dosing regime was 100 mg, and the subsequent doses were 50 mg g12 h.
After a screening period, subjects receive a primary unilateral first metatarsal bunionectomy repair on Day minus one under regional anesthesia (Mayo and popliteal block). A continuous popliteal sciatic block infusion (0.2% ropivacaine) is started after surgery, and remains in place until approximately 3 AM on Day 1. After removal of the popliteal sciatic block, each subject is randomized when the subject requests the first dose of study drug for pain relief and reports pain ≥4 on the NPRS and moderate or severe pain on the VRS.
Randomization was stratified by site and baseline NPRS (<8 versus ≥8). To maintain the blind, all subjects receive the same number of capsules in a double-dummy design.
HB/APAP placebo capsules were administered every 6 hours (q6 h).
The final dose of HB/APAP was given 42 hours after the first dose.
11-point (0 to 10) Numeric Pain Rating Scale: NPRS scores are frequently used in bunionectomy studies and are recognized by the FDA as a valid pain intensity measure. On the 11-point NPRS, a score of 0 denotes no pain, and a score of 10 denotes the worst pain intensity imaginable. Subjects reported their pain on the 11-point NPRS immediately before their first dose of the study drug (baseline NPRS score) and at intervals over 48 hour period (i.e. 0.5, 1, 1.5, 2, 3, 4, 5, 6, 8, 12, 16, 20, 24, 28, 32, 36, 40, 44, and 48 hours (±5 minutes)) after the first dose of the study drug. Pain intensity is also recorded on the NPRS immediately before each administration of rescue medication. Pain intensity scores that are collected within 4 hours after a dose of rescue medication are deemed missing, and the missing values are imputed as the intensity recorded immediately before the administration of rescue medication.
SPID-48 is the sum of the pain intensity difference (PID) over the 48 hour time period. A pain intensity score of 0 (no pain) to 10 (worse possible pain) is obtained before starting the study and throughout the 48 time period. The pain score at each assessment time is subtracted from the baseline pain score to provide the total sum score or SPID-48. A higher SPID-48 is better and indicates a reduction in pain intensity compared to the baseline score.
4-point Verbal Categorical Rating Scale: Subjects report their pain on the 4-point VRS (none, mild, moderate, or severe) immediately before their first dose of the study drug (baseline VRS).
Safety evaluations include adverse events, clinical laboratory assessments, clinical evaluation of vital signs, electrocardiograms, and physical examinations.

[4] = High-dose: 100 mg first dose/50 mg every 12 hours, n = 60
[5] = Low-dose: 20 mg first dose/10 mg every 12 hours, n = 33
[6] = Mid-dose: 60 mg first dose/30 mg every 12 hours, n = 62

COc1c([C@H]2[C@H](C(=O)Nc3ccnc(C(N)=O)c3)O[C@@](C)(C(F)(F)F)[C@H]2C)ccc(F)c1F (single isomer, unassigned) [Compound 1]
IC50 [1]: < 10 nM | SPID48, in words [2]: statistically significant improvement | Mean SPID48 [3, 4]: 137.8 | Mean SPID48 difference from placebo [3, 4]: 36.8 | Mean SPID48 [3, 5]: 112.9 | Mean SPID48 difference from placebo [3, 5]: 11.9 | Mean SPID48 [3, 6]: 86.9 | Mean SPID48 difference from placebo [3, 6]: −14.1 | Onset of action ([3]; bunionectomy study): rapid and was sustained through the duration of assessment | SPID48 compared to placebo (primary endpoint), in words ([3]; high dose, recorded on NPRS): statistically significant improvement
